Results published in patent US20110251229A1 (priority 2007, published 2011).
“Also recorded” adds a separate entry of the source.

How the values were obtained:
TLR4 mRNA = TLR4 mRNA expression in lumbar dorsal spinal cord after chronic intrathecal opioids; type: in vivo, rat; settings: 15 μg intrathecal once daily for 7 days, relative to GAPDH
[1] = tested on: astrocyte (GFAP) and microglia (CD11b/c) activation markers; assay: Glial activation markers (GFAP, CD11b/c) in L5 spinal cord of CCI rats, immunohistochemistry; type: in vivo, rat; settings: 60 μg/hr intrathecal across 4 days, vs vehicle; for CD11b/c expression: bilaterally; for GFAP expression in ipsilateral or contralateral dorsal horns: densitometry
Protocol: Following the final behavioral testing rats were transcardially perfused first with isotonic saline and then with fresh 4% paraformaldehyde/0.1 M phosphate buffer (4% PFA/PB, pH 7.4). After dissection and immersion post-fixation in 4% PFA/PB for an additional 24 hr, the lumbar spinal cords then dehydrated in 30% sucrose with 0.1% azide at 4° C. until slicing.
For immunohistochemistry, sections were treated to suppress endogenous peroxidase and to prevent staining of endogenous biotin. The sections were incubated in either primary mouse monoclonal anti-rat glial fibrillary acidic protein (GFAP) (1:500; to visualize astrocyte astrocyte activation; ICN Biomedicals, Costa Mesa, Calif.) or primary mouse monoclonal anti-rat OX-42 (1:500; to visualize microglial activation; BioSource, Camarillo, Calif.) for 24 hr at 4° C. The slides were then incubated in secondary biotinylated goat anti-mouse IgG antibody (1:500; Jackson ImmunoResearch, West Grove, Pa.) overnight at 4° C. Finally sections were reacted using the avidin-biotin complex procedure (ABC, Vector Elite kit; 1:100 in PBS-Triton; 2 hr; Vector laboratories, Burlingame, Calif.) and 3′,3′-diaminobenzidine (DAB; Sigma-Aldrich). Glucose oxidase (Sigma-Aldrich; type V-s; 0.02%) and beta-D-glucose (0.1%) were used to generate hydrogen peroxide. […] ammonium sulfate was added to the DAB solution (0.025% w/v) to intensify the reaction product. One series of sections was processed as described above except that the primary antibody was omitted from the incubation buffer (omission controls). The slides were dried overnight, cleared, and cover slipped.
Slides were viewed with an Olympus Vannox II bright-field microscope. Images were collected with a Cohu CCD camera coupled to an Apple PowerMac 7200 equipped with NIH Image software (version 1.60). Brightness and contrast were kept constant with the images not altered. The intensity of the light source was calibrated each day.
Representative sections (10×) of ipsilateral dorsal horns of neuropathic (CCI) rats treated intrathecally with 60 μg/hr (+)-naloxone ([…]), 60 μg/hr (−)-naloxone (FIG. 18F), and vehicle (FIG. 18G) are shown. […] Scale bar=500 μm.

[2] = tested on: HAPI microglial cell line; assay: HAPI microglial cell line activation by LPS, mRNA; type: cell-based
Protocol: HAPI microglial cell line was used to examine the effects of (+)-naloxone on microglial activation by LPS. Whereas 100 ng/mL LPS produced elevations in mRNA for CD11b (microglial activation marker), interleukin (IL)-1b, and IL-6, 1 μM (+)-naloxone abolished each of these LPS-induced effects. See FIG. 20 (GAPDH=glyceraldehyde-3-phosphate-dehydrogenase).

[3] = tested on: rats with chronic constriction injury of the sciatic nerve; assay: Chronic constriction injury (CCI)-induced allodynia, von Frey test; settings: for reversal of CCI-induced allodynia: 60 mg/kg s.c.; for reversal of neuropathic pain: rat, in vivo; for reversal of established CCI-induced allodynia: delivery intrathecally or systemically
[4] = tested on: morphine analgesia in rats; assay: Potentiation of acute morphine analgesia, Hargreaves test; type: in vivo, rat
morphine-treated rats = assay: Chronic systemic morphine & (+)-naloxone experiment (Hargreaves, precipitated withdrawal, weight); type: in vivo, rat
human TLR4 = molecular target: T1, human TLR4 (Homo sapiens, UniProt O00206); type: cell-based
T1 construct: host or cells: HEK 293
T1 sequence (O00206 24-839): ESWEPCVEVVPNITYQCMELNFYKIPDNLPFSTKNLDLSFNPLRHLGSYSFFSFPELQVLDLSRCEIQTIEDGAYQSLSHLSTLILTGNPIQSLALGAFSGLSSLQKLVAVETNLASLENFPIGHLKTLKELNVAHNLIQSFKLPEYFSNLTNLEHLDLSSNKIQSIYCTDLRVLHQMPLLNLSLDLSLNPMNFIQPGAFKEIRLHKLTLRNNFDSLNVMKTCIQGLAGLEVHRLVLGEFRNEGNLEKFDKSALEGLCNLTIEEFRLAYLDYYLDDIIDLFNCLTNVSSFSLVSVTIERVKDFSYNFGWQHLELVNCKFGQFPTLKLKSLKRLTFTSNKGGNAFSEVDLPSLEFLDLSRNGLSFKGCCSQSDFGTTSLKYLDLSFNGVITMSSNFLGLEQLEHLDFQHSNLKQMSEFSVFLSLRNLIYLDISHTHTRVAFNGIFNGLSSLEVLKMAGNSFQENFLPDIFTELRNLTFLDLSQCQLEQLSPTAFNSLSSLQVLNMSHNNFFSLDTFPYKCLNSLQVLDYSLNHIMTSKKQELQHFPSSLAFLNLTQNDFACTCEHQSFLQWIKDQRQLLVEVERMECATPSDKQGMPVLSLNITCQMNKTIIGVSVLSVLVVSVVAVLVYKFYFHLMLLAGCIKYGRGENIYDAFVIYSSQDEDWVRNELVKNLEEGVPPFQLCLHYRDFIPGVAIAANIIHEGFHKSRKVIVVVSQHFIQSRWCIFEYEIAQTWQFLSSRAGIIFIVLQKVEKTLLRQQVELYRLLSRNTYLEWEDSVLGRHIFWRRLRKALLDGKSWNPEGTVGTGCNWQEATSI
T1 sequence (Q9Y6Y9 17-160 partner limits assumed): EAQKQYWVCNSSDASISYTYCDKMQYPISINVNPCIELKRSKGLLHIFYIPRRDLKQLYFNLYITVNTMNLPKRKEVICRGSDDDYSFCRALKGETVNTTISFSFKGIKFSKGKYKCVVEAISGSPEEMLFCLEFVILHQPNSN

[5] = tested on: RAW264.7 mouse macrophage cell line expressing GFP-tagged Akt1 (TLR4 signaling); type: cell-based
[6] = about 20 μg co-administered with morphine intrathecally
[7] = 12 mg/day s.c. minipump with 6 mg/day morphine, 7 days

CCC(=O)C(C[C@H](C)N(C)C)(c1ccccc1)c1ccccc1 [(+)-methadone]
TLR4 mRNA in lumbar dorsal spinal cord (TLR4 mRNA): significant elevation

C=CCN1CC[C@]23c4c5ccc(O)c4O[C@H]2C(=O)CC[C@]3(O)[C@H]1C5 [(+)-naloxone, (+)-Naloxone]
CD11b/c expression [1]: reliable suppression
GFAP expression in ipsilateral or contralateral dorsal horns [1]: neither (+)-nor (−)-naloxone affected
LPS-induced elevation in mRNA for CD11b ([2]; 1 μM with 100 ng/mL LPS): abolished
LPS-induced elevation in mRNA for IL-6 ([2]; 1 μM with 100 ng/mL LPS): abolished
LPS-induced elevation in mRNA for interleukin (IL)-1b ([2]; 1 μM with 100 ng/mL LPS): abolished
reversal of CCI-induced allodynia ([3]; 30 min): not significantly
reversal of CCI-induced allodynia ([3]; 90 min): reversed CCI-induced allodynia; also recorded: reversed established allodynia; also recorded: acutely reverses
ipsilateral and contralateral mechanical allodynia ([3]; 100 mg/kg subcutaneous, 14 days after CCI): reliable attenuation
reversal of neuropathic pain [3]: reverses neuropathic pain
morphine analgesia ([4]; 20 μg intrathecal with subcutaneous morphine 4 mg/kg): significantly potentiated; also recorded: potentiation
morphine analgesia [4, 6]: significant potentiation of analgesia
development of morphine-induced hyperalgesia (morphine-treated rats; [7]): blocked the development of morphine-induced hyperalgesia
development of tolerance (morphine-treated rats; [7]): attenuated the development of tolerance
morphine analgesia (morphine-treated rats; [7]): potentiated
weight gain (morphine-treated rats; [7]): enabled normal weight gain
withdrawal behaviors (morphine-treated rats; withdrawal precipitated by 100 mg/kg (−)-naltrexone on day 7): reduced withdrawal behaviors
M3G induced TLR4 signaling (human TLR4): attenuation
antagonism of LPS activity at TLR4 (human TLR4): significant non-competitive antagonism; also recorded: non-competitively antagonizes
effect on basal unstimulated SEAP expression (human TLR4): no substantial effect
increase in the EC50 of LPS (human TLR4): 3 fold
morphine induced TLR4 signaling (human TLR4): attenuation
reduction in the Emax of LPS (human TLR4): 40%
morphine-induced Akt1 response ([5]; morphine 100 μM): blocked
LPS-induced Akt1 response ([5]; preincubation 1mM prior to LPS 7.5 μg/mL): significantly attenuated

O=C1CC[C@]2(O)[C@@H]3Cc4ccc(O)c5c4[C@]2(CCN3CC2CC2)[C@@H]1O5 [(+)-naltrexone]
reversal of established CCI-induced allodynia [3]: reversed established CCI-induced allodynia
morphine analgesia [4, 6]: significant potentiation of analgesia

CN1CC[C@]23c4c5ccc(O[C@@H]6O[C@H](C(=O)O)[C@@H](O)[C@H](O)[C@H]6O)c4O[C@H]2[C@@H](O)C=C[C@H]3[C@H]1C5 [M3G, morphine-3-glucuronide, reference compound]
TLR4 agonist activity (human TLR4): showed TLR4 agonist activity

CN1CC[C@]23c4c5ccc(O)c4O[C@H]2[C@@H](O[C@@H]2O[C@H](C(=O)O)[C@@H](O)[C@H](O)[C@H]2O)C=C[C@H]3[C@H]1C5 [M6G, morphine-6-glucuronide, reference compound]
TLR4 agonist activity (human TLR4): not found to have any significant TLR4 agonist activity

CCC(=O)C(CC(C)N(C)C)(c1ccccc1)c1ccccc1 (centres unmarked) [methadone, reference compound]
TLR4 agonist activity (human TLR4): TLR4 agonists

C=CCN1CC[C@]23c4c5ccc(O)c4O[C@H]2C(=O)CC[C@@]3(O)[C@H]1C5 [naloxone, reference compound]
ipsilateral and contralateral allodynia ([3]; chronic intrathecal osmotic minipump, 20 or 60 ug/hr, 4-96 hr): attenuation

COc1ccc2c3c1O[C@H]1C(=O)CC[C@@]4(O)[C@@H](C2)N(C)CC[C@]314 [oxycodone, reference compound]
TLR4 agonist activity (human TLR4): TLR4 agonists

CCOC(=O)C1(c2ccccc2)CCN(C)CC1 [pethadine/meperidine, meperidine, reference compound]
TLR4 agonist activity (human TLR4): TLR4 agonists

(−)-methadone
TLR4 mRNA in lumbar dorsal spinal cord (TLR4 mRNA): significant elevation

(−)-naloxone [reference compound]
CD11b/c expression [1]: reliable suppression
GFAP expression in ipsilateral or contralateral dorsal horns [1]: neither (+)-nor (−)-naloxone affected
reversal of neuropathic pain [3]: reverses neuropathic pain

(−)-naltrexone [reference compound]
reversal of established CCI-induced allodynia [3]: reversed established CCI-induced allodynia

Lipopolysaccharide [LPS, reference compound]
mRNA for CD11b ([2]; 100 ng/mL): elevations
mRNA for IL-6 ([2]; 100 ng/mL): elevations
mRNA for interleukin (IL)-1b ([2]; 100 ng/mL): elevations
EC50 (SEAP expression) (human TLR4): 0.21 ng/mL
Emax (SEAP expression) (human TLR4): 40,956 arbitrary fluorescence units
clearance of GFP-Akt1 from the cytosol [5]: robust, rapid clearance
